US8188292B2, “Insecticidal N-substituted (heteroaryl)alkyl sulfilimines” (Dow AgroSciences, LLC, priority 2006, dated 2012)

Experiments:
[1] = test system: green peach aphid (Myzus persicae); assay: Insecticidal test for green peach aphid in foliar spray assay; format: in vivo; design: key to GPA 50: % control at 50 ppm against green peach aphid in foliar spray tests / GPA 200: % control at 200 ppm against green peach aphid in foliar spray tests: A: 90-100; B: 80-89; C: 70-79; D: 60-69; E: 50-59; F: Less than 50; G: Inactive; H: Not tested; settings: foliar spray on cabbage seedlings, 3 days, Corrected % Control (Abbott); for pest or weed control at 200 ppm / pest or weed control at 50 ppm: Myzus persicae, 72 h; for pest or weed control at 200 ppm: read-out: GPA 200: % control at 200 ppm against green peach aphid in foliar spray tests; for pest or weed control at 50 ppm: read-out: GPA 50: % control at 50 ppm against green peach aphid in foliar spray tests
Protocol: The compounds identified in the foregoing examples were tested against cotton aphid and green peach aphid using procedures described hereinafter. Squash with fully expanded cotyledon leaves were trimmed to one cotyledon per plant and infested with cotton aphid (wingless adult and nymph) 1 day prior to chemical application. Each plant was examined before chemical application to ensure proper infestation (ca. 30-70 aphids per plant). Compounds (2 mg) were dissolved in 2 ml of acetone:methanol (1:1) solvent, forming stock solutions of 1000 ppm. The stock solutions were diluted 5× with 0.025% Tween 20 in H2O to obtain a solution at 200 ppm. Lower concentrations (50, 12.5 and 3.13 ppm) were prepared by making sequential 4× dilutions from the 200 ppm solution with a diluent consisting 80 parts of 0.025% Tween 20 in H2O and 20 parts of acetone:methanol (1:1). A hand-held Devilbiss sprayer was used to apply the spray solutions until runoff to both sides of the squash cotyledon leaves. Four plants (4 replications) were used for each concentration of each compound. Reference plants (solvent check) were sprayed with the diluent only. Treated plants were held in a holding room for 3 days at approximately 23° C. and 40% RH before the number of live aphids on each plant was recorded. Insecticidal activity was measured by Corrected % Control using Abbott's correction formula and presented in Table 1: Corrected % Control=100*(X−Y)/X • where X=No. of live aphids on solvent check plants • Y=No. of live aphids on treated plants Insecticidal Test for Green Peach Aphid (Myzus Persicae) in Foliar Spray Assay Cabbage seedlings grown in 3-inch pots, with 2-3 small (3-5 cm) true leaves, were used as test substrate. The seedlings were infested with 20-50 green peach aphids (wingless adult and nymph) 2-3 days prior to chemical application. Four seedlings were used for each treatment. Compounds (2 mg) were dissolved in 2 ml of acetone:methanol (1:1) solvent, forming stock solutions of 1000 ppm. The stock solutions were diluted 5× with 0.025% Tween 20 in H2O to obtain a solution at 200 ppm. Lower concentrations (50, 12.5 and 3.13 ppm) were prepared by making sequential 4× dilutions from the 200 ppm solution with a diluent consisting 80 parts of 0.025% Tween 20 in H2O and 20 parts of acetone: methanol (1:1). A hand-held Devilbiss sprayer was used for spraying a solution to both sides of cabbage leaves until runoff. Reference plants (solvent check) were sprayed with the diluent only. Treated plants were held in a holding room for three days at approximately 23° C. and 40% RH prior to grading. Evaluation was conducted by counting the number of live aphids per plant under a microscope. Insecticidal activity was measured by using Abbott's correction formula: Corrected % Control=100*(X−Y)/X • where X=No. of live aphids on solvent check plants • Y=No. of live aphids on treated plants The Corrected % Control values from assays are given in Table 1.

[2] = test system: cotton aphid (Aphis gossypii); assay: Insecticidal test for cotton aphid in foliar spray assay; format: in vivo; design: key to CA 50: % control at 50 ppm against cotton aphid in foliar spray tests: A: 90-100; B: 80-89; C: 70-79; D: 60-69; E: 50-59; F: Less than 50; G: Inactive; H: Not tested; settings: foliar spray on squash cotyledons, 3 days, Corrected % Control (Abbott); for pest or weed control at 200 ppm / pest or weed control at 50 ppm: Aphis gossypii, 72 h; for pest or weed control at 200 ppm: read-out: CA 200: % control at 200 ppm against cotton aphid in foliar spray tests; for pest or weed control at 50 ppm: read-out: CA 50: % control at 50 ppm against cotton aphid in foliar spray tests
Protocol: The compounds identified in the foregoing examples were tested against cotton aphid and green peach aphid using procedures described hereinafter. Insecticidal Test for Cotton Aphid (Aphis Gossypii) in Foliar Spray Assay Squash with fully expanded cotyledon leaves were trimmed to one cotyledon per plant and infested with cotton aphid (wingless adult and nymph) 1 day prior to chemical application. Each plant was examined before chemical application to ensure proper infestation (ca. 30-70 aphids per plant). Compounds (2 mg) were dissolved in 2 ml of acetone:methanol (1:1) solvent, forming stock solutions of 1000 ppm. The stock solutions were diluted 5× with 0.025% Tween 20 in H2O to obtain a solution at 200 ppm. Lower concentrations (50, 12.5 and 3.13 ppm) were prepared by making sequential 4× dilutions from the 200 ppm solution with a diluent consisting 80 parts of 0.025% Tween 20 in H2O and 20 parts of acetone:methanol (1:1). A hand-held Devilbiss sprayer was used to apply the spray solutions until runoff to both sides of the squash cotyledon leaves. Four plants (4 replications) were used for each concentration of each compound. Reference plants (solvent check) were sprayed with the diluent only. Treated plants were held in a holding room for 3 days at approximately 23° C. and 40% RH before the number of live aphids on each plant was recorded. Insecticidal activity was measured by Corrected % Control using Abbott's correction formula and presented in Table 1: Corrected % Control=100*(X−Y)/X • where X=No. of live aphids on solvent check plants • Y=No. of live aphids on treated plants Insecticidal Test for Green Peach Aphid (Myzus Persicae) in Foliar Spray Assay

Row | SMILES | GPA 50: % control at 50 ppm against green peach aphid in foliar spray tests [1] | pest or weed control at 200 ppm [1] [%] | CA 50: % control at 50 ppm against cotton aphid in foliar spray tests ([2]; 50 ppm) | pest or weed control at 200 ppm [2] [%] | GPA 200: % control at 200 ppm against green peach aphid in foliar spray tests [1] | pest or weed control at 50 ppm ([2]; 50 ppm) [%] | pest or weed control at 50 ppm [1] [%]
1 | CS(=NC#N)[C@@H]1CCC[C@@H]1c1ccc(Cl)nc1 (relative stereo) [Compound 9, cis-[2-(6-chloropyridin-3-yl)cyclopentyl](methyl)-λ^4-sulfanylidenecyanamide] | G | 60 to 69 | G | 60 to 69 | – | – | –
2 | C/S(Cc1ccc(C(F)(F)F)nc1)=N\C#N (stereo not drawn) [Compound 1] | G | – | – | 90 to 100 | G | 60 to 69 | –
3 | CC(c1ccc(C(F)(F)Cl)nc1)/S(C)=N/C#N (stereo not drawn) [Compound 2, (1-{6-[chloro(difluoro)methyl]pyridin-3-yl}ethyl)(methyl)-λ^4-sulfanylidenecyanamide] | – | 90 to 100 | – | 90 to 100 | – | 90 to 100 | 90 to 100
4 | CC(c1ccc(C(Cl)(Cl)Cl)nc1)/S(C)=N/C#N (stereo not drawn) [Compound 3, {1-[6-(trichloromethyl)pyridin-3-yl]ethyl}(methyl)-λ^4-sulfanylidenecyanamide] | – | 90 to 100 | – | 90 to 100 | – | 90 to 100 | 90 to 100
5 | CC(c1cnc(Cl)nc1)/S(C)=N/C#N (stereo not drawn) [Compound 4, (1E)-[1-(2-chloropyrimidin-5-yl)ethyl](methyl)-λ^4-sulfanylidenecyanamide] | G | < 50 | – | 90 to 100 | – | 70 to 79 | –
6 | C/S(Cc1cnc(C(F)(F)F)s1)=N\C#N (stereo not drawn) [Compound 5, (1E)-methyl {[2-(trifluoromethyl)-1,3-thiazol-5-yl]methyl}-λ^4-sulfanylidenecyanamide] | G | – | – | 90 to 100 | G | 50 to 59 | –
7 | N#C/N=S1/CCC(c2ccc(C(F)(F)F)nc2)C1 (stereo not drawn) [Compound 6, 3-[6-(trifluoromethyl)pyridin-3-yl]tetrahydro-1H-1λ^4-thien-1-ylidenecyanamide] | – | 70 to 79 | – | 90 to 100 | – | 90 to 100 | 50 to 59
8 | C/S(Cc1cnc(Cl)c(F)c1)=N\C#N (stereo not drawn) [Compound 7, [(5-fluoro-6-chloropyridin-3-yl)methyl](methyl)-λ^4-sulfanylidenecyanamide] | – | 70 to 79 | – | 90 to 100 | – | 90 to 100 | 60 to 69
9 | C/S(Cc1ccc(C(C)(F)F)nc1)=N\C#N (stereo not drawn) [Compound 8] | – | 90 to 100 | – | 90 to 100 | – | 90 to 100 | 60 to 69
